Results taken from ChEMBL document CHEMBL1201862, “PubChem BioAssay data set” (2004).
Blank lines part the entries; values can stand above or below the compound they belong to. Activity calls are given as the source filed them.

Columns and labels:
[1] = biological target: Latent membrane protein 1 (Human herpesvirus 4 (strain B95-8), UniProt P03230); assay: TES1-eGFP NF-kB reporter inhibition versus Tet-On dsRED, dose response, selectivity assay for LMP1 NF-kB inhibitor project, imaging, HEK293T, dual-color eGFP/dsRED, cherry-picks (AID 588398); type: functional, cell-based
[2] = biological target: T1, Sentrin-specific protease 8 (Homo sapiens, UniProt Q96LD8); assay: SENP8 protease inhibitors, SAR follow-up, biochemical, luminescence, set 2 (AID 588601); type: functional
T1 sequence (Q96LD8 whole entry): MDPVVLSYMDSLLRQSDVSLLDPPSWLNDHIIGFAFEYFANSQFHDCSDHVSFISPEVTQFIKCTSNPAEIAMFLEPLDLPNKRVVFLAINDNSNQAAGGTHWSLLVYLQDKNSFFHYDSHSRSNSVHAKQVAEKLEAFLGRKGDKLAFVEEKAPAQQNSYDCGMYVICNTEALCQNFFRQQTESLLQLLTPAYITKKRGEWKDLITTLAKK

[3] = biological target: T2, Sentrin-specific protease 7 (Homo sapiens, UniProt Q9BQF6); assay: SENP7 protease inhibitors, SAR follow-up, biochemical, luminescence (AID 504497); type: functional
T2 sequence (Q9BQF6 whole entry): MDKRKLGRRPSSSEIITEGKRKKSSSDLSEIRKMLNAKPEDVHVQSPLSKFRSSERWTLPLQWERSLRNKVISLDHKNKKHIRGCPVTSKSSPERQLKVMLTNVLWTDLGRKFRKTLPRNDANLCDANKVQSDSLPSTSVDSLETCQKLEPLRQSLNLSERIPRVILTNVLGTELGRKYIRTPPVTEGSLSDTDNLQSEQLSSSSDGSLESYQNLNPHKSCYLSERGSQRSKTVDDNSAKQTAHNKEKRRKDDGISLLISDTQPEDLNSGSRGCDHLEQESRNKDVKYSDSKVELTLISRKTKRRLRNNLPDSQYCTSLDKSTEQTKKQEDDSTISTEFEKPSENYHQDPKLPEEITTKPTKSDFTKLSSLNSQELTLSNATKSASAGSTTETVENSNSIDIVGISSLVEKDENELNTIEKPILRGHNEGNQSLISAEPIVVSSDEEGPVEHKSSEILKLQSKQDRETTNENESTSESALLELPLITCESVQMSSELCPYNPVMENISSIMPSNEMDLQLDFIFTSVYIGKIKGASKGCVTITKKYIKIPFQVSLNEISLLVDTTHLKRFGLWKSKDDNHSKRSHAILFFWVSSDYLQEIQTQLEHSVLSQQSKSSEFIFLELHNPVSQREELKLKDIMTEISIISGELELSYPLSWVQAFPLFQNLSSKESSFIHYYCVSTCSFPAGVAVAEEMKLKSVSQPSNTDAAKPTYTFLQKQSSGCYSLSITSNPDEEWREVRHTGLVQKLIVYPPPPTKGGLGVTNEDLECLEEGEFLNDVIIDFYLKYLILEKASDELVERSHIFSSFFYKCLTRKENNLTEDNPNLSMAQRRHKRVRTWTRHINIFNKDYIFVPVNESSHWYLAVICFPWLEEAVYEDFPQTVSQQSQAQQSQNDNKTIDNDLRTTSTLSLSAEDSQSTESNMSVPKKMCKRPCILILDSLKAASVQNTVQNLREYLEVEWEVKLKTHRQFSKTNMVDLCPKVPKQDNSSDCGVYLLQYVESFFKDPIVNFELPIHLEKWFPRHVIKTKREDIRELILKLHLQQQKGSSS

[4] = biological target: T3, Sentrin-specific protease 6 (Homo sapiens, UniProt Q9GZR1); assay: SAR Analysis of small molecule inhibitors of Sentrin-specific protease 6 (SENP6) using a Luminescent assay. [Related pubchem assays (depositor defined):AID2582, AID2599]; type: functional
T3 sequence (Q9GZR1 whole entry): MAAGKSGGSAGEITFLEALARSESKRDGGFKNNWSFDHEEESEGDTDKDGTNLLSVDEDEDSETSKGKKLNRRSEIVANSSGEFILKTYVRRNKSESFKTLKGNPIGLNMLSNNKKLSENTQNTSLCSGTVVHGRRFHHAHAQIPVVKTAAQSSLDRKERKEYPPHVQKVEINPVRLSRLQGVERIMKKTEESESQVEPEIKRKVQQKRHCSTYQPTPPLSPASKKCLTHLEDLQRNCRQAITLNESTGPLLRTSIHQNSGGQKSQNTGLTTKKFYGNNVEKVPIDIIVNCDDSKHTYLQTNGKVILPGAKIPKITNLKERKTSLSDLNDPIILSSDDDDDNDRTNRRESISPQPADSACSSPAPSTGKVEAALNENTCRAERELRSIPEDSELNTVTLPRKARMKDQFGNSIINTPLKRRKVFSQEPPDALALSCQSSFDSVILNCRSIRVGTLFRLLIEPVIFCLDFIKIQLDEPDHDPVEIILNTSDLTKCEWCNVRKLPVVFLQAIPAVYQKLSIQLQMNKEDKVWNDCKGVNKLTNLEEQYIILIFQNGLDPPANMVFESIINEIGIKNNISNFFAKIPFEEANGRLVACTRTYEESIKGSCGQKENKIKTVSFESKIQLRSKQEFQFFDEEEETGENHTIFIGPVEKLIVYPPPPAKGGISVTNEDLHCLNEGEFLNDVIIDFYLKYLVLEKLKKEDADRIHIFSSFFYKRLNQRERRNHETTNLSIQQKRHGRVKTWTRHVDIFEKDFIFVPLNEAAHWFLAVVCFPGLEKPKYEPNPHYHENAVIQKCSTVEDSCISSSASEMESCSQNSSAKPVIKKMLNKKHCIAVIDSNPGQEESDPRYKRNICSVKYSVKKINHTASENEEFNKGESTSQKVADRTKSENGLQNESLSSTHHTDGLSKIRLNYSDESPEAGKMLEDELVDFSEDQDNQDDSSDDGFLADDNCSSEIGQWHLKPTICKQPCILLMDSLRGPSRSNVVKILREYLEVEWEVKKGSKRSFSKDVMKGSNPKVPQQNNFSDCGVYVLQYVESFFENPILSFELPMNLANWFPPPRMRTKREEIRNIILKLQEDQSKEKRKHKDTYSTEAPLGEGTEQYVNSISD

[5] = biological target: T4, Caspase-3 (Homo sapiens, UniProt P42574); assay: SAR Analysis of small molecule inhibitors of Sentrin-specific proteases (SENPs) using a Caspase-3 Selectivity assay. [Related pubchem assays (depositor defined):AID2540, AID2599, AID434973, AID489001]; type: functional
T4 sequence (P42574 whole entry): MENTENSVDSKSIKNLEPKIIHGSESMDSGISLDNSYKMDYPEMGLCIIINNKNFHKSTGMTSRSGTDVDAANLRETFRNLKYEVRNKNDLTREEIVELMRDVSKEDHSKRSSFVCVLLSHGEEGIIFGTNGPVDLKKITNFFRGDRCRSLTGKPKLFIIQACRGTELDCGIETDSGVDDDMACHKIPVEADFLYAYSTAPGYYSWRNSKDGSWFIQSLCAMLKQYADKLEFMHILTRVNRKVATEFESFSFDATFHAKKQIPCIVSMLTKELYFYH

[6] = biological target: T4, Caspase-3; assay: caspase-3 inhibitors as off-family protease, SAR follow-up, selectivity assay for SENP protease inhibitor project, biochemical, luminescence, set 2 (AID 588599); type: functional
[7] = biological target: T1, Sentrin-specific protease 8; assay: SENP8 protease inhibitors, SAR follow-up, biochemical, luminescence (AID 504501); type: functional
[8] = biological target: T3, Sentrin-specific protease 6; assay: SENP6 protease inhibitors, SAR follow-up, biochemical, luminescence, set 2 (AID 588598); type: functional
[9] = HepG2 cell cytotoxicity, dose response, cytotoxicity control for Shn3 inhibitor project, CellTiter-Glo, cherry-picked (AID 624134); type: functional, cell-based
[10] = Shn3 3'UTR reporter inhibitors, dose response, cell-based, Clone20 osteoblasts, firefly luciferase, cherry-picked (AID 624132); type: functional;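 also: firefly luciferase luminescence from reporter carrying the Shn3 3'UTR in osteoblasts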
[11] = system: HEK293; assay: inhibitors of LMP1-driven NF-kB reporter, dose response, cell-based, HEK293, luciferase, cherry-pick (AID 588343); type: functional; conditions: Homo sapiens
[12] = HEK293 cell cytotoxicity, dose response, cytotoxicity control, plate reader, cherry-picked samples (AID 743446); type: functional, cell-based
[13] = control 3'UTR Renilla luciferase suppression, dose response, counter-screen for Shn3 inhibitor project, cell-based, Clone20-Shn3RL, cherry-picked (AID 624133); type: functional
[14] = LGR2 antagonists, dose response, cell-based, HEK293, CRE-luciferase reporter, cherry pick, set 2 (AID 743343); type: functional;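 also: transfected cells were stimulated with diluted bursicon conditioned medium after compound addition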
[15] = HEK293T cell cytotoxicity, dose response, cytotoxicity control for HIV Vif inhibitor project, cherry-picks (AID 652208); type: functional, cell-based
[16] = HepG2 cell cytotoxicity, dose response, cytotoxicity control, plate reader, cherry-pick, antagonist series (AID 743416); type: functional, cell-based
[17] = A549 cell cytotoxicity, dose response, cytotoxicity control, plate reader, cherry-pick, antagonist series (AID 743412); type: functional, cell-based
[18] = biological target: T5, Phospholipase D1 (Homo sapiens, UniProt Q13393); assay: PLD1 inhibitor potency in cells, dose response (AID 602151); type: functional;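 also: cellular PLD1 assay in Calu-1 cells stimulated with PMA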
T5 sequence (Q13393 whole entry): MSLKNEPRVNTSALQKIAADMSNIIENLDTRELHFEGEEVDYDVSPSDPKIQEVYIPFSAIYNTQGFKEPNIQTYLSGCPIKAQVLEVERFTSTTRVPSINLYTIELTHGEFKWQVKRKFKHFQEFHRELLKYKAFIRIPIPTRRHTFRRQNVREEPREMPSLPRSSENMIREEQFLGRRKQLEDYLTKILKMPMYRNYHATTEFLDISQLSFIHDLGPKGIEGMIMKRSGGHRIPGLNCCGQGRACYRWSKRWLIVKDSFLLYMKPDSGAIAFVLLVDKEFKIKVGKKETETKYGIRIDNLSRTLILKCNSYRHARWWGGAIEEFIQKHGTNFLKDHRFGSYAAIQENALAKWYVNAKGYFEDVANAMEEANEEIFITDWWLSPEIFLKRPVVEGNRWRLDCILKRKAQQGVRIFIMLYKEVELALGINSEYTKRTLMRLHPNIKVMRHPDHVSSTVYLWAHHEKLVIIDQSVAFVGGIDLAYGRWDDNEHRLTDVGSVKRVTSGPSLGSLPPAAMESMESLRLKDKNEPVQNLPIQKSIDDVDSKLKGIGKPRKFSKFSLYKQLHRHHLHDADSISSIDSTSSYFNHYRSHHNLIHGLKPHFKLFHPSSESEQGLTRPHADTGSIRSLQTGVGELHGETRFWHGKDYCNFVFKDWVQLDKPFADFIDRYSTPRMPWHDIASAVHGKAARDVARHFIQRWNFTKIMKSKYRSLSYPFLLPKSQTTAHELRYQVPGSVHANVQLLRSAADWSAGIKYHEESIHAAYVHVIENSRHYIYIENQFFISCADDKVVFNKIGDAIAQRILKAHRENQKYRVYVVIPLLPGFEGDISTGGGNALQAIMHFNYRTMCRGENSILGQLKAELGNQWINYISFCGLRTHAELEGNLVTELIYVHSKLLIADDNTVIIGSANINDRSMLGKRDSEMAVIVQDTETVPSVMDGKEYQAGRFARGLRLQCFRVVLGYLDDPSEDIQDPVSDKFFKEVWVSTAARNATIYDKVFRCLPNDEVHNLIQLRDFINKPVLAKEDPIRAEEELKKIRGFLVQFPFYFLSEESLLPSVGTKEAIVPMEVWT

[19] = biological target: Phospholipase D2 (Homo sapiens, UniProt O14939); assay: PLD2 inhibitor potency in cells, dose response (AID 602147); type: functional;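 also: cellular assay in HEK293 cells overexpressing GFP-tagged PLD2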
Sequence of Phospholipase D2 (O14939 whole entry): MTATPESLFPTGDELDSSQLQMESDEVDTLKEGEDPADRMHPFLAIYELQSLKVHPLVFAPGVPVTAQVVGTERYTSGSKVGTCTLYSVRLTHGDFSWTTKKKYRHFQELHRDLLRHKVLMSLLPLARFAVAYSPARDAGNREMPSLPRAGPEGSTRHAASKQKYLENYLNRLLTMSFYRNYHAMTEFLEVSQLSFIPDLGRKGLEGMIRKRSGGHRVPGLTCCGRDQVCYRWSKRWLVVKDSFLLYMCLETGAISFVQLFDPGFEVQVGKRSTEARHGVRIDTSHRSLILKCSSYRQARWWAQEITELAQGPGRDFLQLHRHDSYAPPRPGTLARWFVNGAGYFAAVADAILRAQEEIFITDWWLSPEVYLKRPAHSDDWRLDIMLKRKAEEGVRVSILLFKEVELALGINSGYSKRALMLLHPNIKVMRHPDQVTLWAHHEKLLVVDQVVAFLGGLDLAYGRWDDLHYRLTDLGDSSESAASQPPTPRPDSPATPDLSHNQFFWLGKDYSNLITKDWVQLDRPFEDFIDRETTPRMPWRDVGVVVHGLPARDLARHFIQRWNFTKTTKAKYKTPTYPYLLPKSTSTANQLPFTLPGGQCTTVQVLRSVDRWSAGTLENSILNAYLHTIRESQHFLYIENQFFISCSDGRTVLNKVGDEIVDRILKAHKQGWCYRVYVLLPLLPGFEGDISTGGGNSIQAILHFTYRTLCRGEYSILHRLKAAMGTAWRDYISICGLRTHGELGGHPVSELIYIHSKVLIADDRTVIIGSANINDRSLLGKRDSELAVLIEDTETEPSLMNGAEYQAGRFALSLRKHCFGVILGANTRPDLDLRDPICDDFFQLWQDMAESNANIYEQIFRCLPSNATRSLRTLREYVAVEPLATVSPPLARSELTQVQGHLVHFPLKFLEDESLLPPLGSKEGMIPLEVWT

Sequence of Latent membrane protein 1 (P03230 whole entry): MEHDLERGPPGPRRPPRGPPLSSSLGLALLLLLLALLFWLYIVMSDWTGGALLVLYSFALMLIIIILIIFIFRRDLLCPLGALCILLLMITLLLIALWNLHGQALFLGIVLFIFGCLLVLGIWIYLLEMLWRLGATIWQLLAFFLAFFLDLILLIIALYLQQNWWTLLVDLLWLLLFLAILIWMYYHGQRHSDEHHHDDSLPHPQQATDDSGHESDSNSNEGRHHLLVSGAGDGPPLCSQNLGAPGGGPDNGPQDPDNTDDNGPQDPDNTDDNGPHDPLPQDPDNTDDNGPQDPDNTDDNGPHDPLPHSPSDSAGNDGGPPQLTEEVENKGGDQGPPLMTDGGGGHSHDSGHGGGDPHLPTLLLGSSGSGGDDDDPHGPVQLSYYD

AC50 [1]: 29.5 µM (active)
SMILES: COc1ccc(C)cc1S(=O)(=O)N(CC(=O)Nc1cc([N+](=O)[O-])ccc1C)c1ccc(C)c(C)c1

IC50 [3]: 1.7 µM (active)
IC50 [4]: 1.9 µM (active)
IC50 [5]: 1.3 µM (active)
IC50 [6]: 1.16 µM (active)
IC50 [8]: 1.45 µM (active)
SMILES: CN(C)c1ccc(/C=C/c2noc(-c3ccccc3O)n2)cc1
IC50 [2]: 1.42 µM (active)
IC50 [7]: 2.1 µM (active)

SMILES: CC(C)OC(=O)c1ccc(NCc2cc(O)ccc2O)cc1Cl
AC50 [1]: 9.48 µM (active)
AC50 [9]: 33.5 µM (active)
AC50 [10]: 2.15 µM (active)
AC50 [11]: 10.9 µM (active)
AC50 [12]: 4.76 µM (active)
AC50 [13]: 4.45 µM (active)
AC50 [14]: 49.2 µM (active)
AC50 [15]: 6.42 µM (active)
AC50 [16]: 23.6 µM (active)
AC50 [17]: 17 µM (active)

SMILES: C[C@@H](CN1CCC(n2c(=O)[nH]c3ccccc32)CC1)NC(=O)c1ccc(Cl)c(Cl)c1
IC50 [18]: 0.023 µM (active)
IC50 [19]: 0.428 µM (active)

SMILES: O=C(NCCN1CCC2(CC1)C(=O)NCN2c1ccccc1)c1cccc(F)n1
IC50 [18]: 12 µM (active)
IC50 [19]: 4.46 µM (active)
